Experimental data as given in PMC10818931, “In Vitro Evaluation of Drug–Drug Interaction Potential of Epetraborole, a Novel Bacterial Leucyl-tRNA Synthetase Inhibitor” (Pharmaceuticals, 2024).
≈ marks a conversion by molar mass, not a printed value. Like-named read-outs stand apart in the source and are kept apart here.

Key:
CYP2B6 = assay: CYP mRNA induction in plated human hepatocytes (qPCR); conditions: for Apparent Emax: CYP2B6 mRNA, EBO 0.3–100 µM, M3 1–250 µM
Protocol: (§1) The induction potential of EBO and M3 on CYP1A2, CYP2B6, and 3A4 was evaluated by incubating the test articles with plated human hepatocytes from 3 individual donors (GKJ, ZEY, WKF) in triplicate according to WuXi AppTec (Cranbury, NJ, USA) SOP.
(§2) At the end of incubation, the RNA of human hepatocytes was isolated and the mRNA expression levels of CYP 1A2, 2B6, and 3A4 were evaluated by using real-time polymerase chain reaction (qPCR) after being reverse-transcribed (RT) to cDNA following manufacturer’s instruction (thermos Fisher Scientific (Waltham, MA, USA). On the last dosing day with EBO or M3, incubation samples were extracted in triplicate by the addition of ice-cold quench solutions at 0, 0.5, 1, 2, 4, 6, and 24 h after dosing and the extracted samples were analyzed using LC-MS/MS to determine the EBO or M3 concentration in each sample.

CYP1A2 = assay: as above; conditions: for Apparent Emax: CYP1A2 mRNA, EBO 0.3–100 µM, M3 1–250 µM
Protocol: as §1, §2

CYP3A4 = assay: as above; conditions: for Apparent Emax: EBO 0.3–100 µM, M3 1–250 µM; for EC50 at 2 days: human
Protocol: as §1, §2

[1] = Solubility in hepatocyte incubation medium; assay type: physicochemical; conditions: aqueous buffer, read-out: Soluble in hepatocyte incubation medium at
OATP1B1 = biological target: T1, OATP1B1 (Homo sapiens, UniProt Q9Y6L6); assay: Substrate potential in transporter-transfected MDCK cells; assay type: in vitro ADME
T1 construct: host or cells: MDCK
T1 sequence (Q9Y6L6 1-691): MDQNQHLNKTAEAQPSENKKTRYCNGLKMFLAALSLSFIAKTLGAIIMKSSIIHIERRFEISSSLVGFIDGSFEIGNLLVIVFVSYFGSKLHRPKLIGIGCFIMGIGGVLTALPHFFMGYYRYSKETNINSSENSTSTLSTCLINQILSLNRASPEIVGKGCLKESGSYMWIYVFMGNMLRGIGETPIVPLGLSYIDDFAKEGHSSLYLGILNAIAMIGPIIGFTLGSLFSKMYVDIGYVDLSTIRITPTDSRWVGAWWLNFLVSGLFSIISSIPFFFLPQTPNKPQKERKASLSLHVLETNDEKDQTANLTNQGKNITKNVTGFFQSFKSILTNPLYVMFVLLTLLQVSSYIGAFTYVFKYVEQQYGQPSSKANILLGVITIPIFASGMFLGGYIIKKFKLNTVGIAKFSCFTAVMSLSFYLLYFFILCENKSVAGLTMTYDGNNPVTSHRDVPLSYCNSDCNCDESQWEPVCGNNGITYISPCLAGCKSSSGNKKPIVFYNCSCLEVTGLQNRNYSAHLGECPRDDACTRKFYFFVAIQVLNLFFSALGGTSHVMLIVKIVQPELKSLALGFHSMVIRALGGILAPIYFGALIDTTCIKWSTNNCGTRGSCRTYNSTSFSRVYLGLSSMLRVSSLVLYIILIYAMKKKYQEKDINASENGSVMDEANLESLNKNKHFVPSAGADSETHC
Protocol: (§3) The uptake of a probe substrate of each transporter was conducted in parallel with the test article in separate wells of the same batch of vector control and transporter-transfected cells. Cells were incubated at 37 °C with 5% CO2 with 500 μL of dosing solution for different periods of time.

OAT1 = biological target: T2, OAT1 (Homo sapiens, UniProt Q4U2R8); assay: as above; assay type: in vitro ADME
T2 construct: host or cells: MDCK
T2 sequence (Q4U2R8 1-563): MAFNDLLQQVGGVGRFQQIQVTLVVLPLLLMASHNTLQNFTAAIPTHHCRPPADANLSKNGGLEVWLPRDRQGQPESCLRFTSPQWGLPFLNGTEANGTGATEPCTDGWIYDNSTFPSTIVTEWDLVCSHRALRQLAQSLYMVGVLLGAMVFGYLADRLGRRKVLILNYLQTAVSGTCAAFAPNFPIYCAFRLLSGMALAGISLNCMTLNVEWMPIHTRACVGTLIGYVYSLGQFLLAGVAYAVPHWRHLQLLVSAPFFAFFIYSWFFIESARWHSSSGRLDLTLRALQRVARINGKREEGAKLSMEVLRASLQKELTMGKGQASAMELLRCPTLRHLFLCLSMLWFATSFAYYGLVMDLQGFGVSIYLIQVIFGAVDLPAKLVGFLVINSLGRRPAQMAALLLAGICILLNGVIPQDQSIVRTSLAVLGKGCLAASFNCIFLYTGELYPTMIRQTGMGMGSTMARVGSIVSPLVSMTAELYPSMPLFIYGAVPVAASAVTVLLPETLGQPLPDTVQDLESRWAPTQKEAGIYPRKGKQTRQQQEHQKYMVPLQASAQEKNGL
Protocol: as §3

OCT2 = biological target: T3, OCT2 (Homo sapiens, UniProt O15244); assay: as above; assay type: in vitro ADME
T3 construct: host or cells: MDCK
T3 sequence (O15244 1-555): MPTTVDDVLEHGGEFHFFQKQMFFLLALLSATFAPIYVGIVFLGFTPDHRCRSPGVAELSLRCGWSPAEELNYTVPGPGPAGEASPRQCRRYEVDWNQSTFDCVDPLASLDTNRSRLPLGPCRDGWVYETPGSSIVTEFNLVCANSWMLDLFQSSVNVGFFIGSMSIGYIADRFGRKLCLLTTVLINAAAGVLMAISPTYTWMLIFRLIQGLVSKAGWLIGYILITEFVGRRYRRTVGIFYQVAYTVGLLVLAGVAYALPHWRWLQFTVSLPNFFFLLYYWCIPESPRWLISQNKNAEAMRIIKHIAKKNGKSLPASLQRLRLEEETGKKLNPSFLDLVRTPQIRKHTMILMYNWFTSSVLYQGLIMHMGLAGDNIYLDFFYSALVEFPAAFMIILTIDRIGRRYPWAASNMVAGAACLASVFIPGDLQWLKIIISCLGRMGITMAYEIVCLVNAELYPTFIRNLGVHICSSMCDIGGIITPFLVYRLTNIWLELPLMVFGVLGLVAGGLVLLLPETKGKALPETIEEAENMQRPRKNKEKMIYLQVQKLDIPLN
Protocol: as §3

[2] = cited from earlier work
[3] = at 100 µM, EBO 2 out of 3 donors, M3 1 out of 3 donors
[4] = EBO 500 mg PO q24h, healthy subjects, Study EBO-101, printed with "(unbound fraction)", read-out: Steady-state systemic total Cmax
[5] = human study of radiolabeled EBO

Row | SMILES | Apparent Emax (CYP2B6; donor one) [Fold] | Apparent Emax (CYP2B6; donor three) [Fold] | Apparent Emax (CYP2B6; donor two) [Fold] | Apparent Emax (CYP1A2; donor one) [Fold] | Apparent Emax (CYP1A2; donor three) [Fold] | Apparent Emax (CYP1A2; donor two) [Fold] | Apparent Emax (CYP3A4; CYP3A4 mRNA, donor one) [Fold] | Apparent Emax (CYP3A4; CYP3A4 mRNA, donor three) [Fold] | Apparent Emax (CYP3A4; CYP3A4 mRNA, donor two) [Fold] | CYP3A4 mRNA expression induction (CYP3A4; [3]) | solubility [1] [mM] | Influx ratio (OATP1B1) | as a Substrate (OATP1B1) | Influx ratio (OAT1) | as a Substrate (OAT1) | as a Substrate (OCT2) | Cmax [2, 4] [µM] | also measured
1 | NC[C@H]1OB(O)c2c(OCCC(=O)O)cccc21 [M3] | <2 | <2 | <2 | <2 | <2 | <2 | 2.16 | <2 | <2 | 2.19 fold | 0.25 (≈ 62.8 µg/mL) | < 2 | No | < 2 | No | not a substrate and No | 20 | CYP3A4 mRNA expression induction (CYP3A4; at 250 µM, 1 out of 3 donors): 2.13 fold; EC50 at 2 days (CYP3A4): 32.4 µM; Excretion (in words) [2, 5]: excreted predominantly in the urine; Further metabolism (in words) [2, 5]: not subject to further metabolism
2 | NC[C@H]1OB(O)c2c(OCCCO)cccc21 [EBO, Epetraborole] | <2 | <2 | >2.18 | <2 | <2 | <2 | >2.98 | <2 | >2.93 | ~ 3 fold | 20 (≈ 4740 µg/mL) | < 2 | No | < 2 | No | could potentially be a substrate and Yes | 12 | CYP2B6 mRNA expression induction (CYP2B6; at 100 µM, 1 out of 3 donors): 2.18 fold; Inducer of CYP2B6 (in words) (CYP2B6; hepatocytes): weak inducer; EC50 at 2 days (CYP2B6; human, plated human hepatocytes): > 100 µM; Inducer of CYP1A2 mRNA (in words) (CYP1A2; hepatocytes): not an inducer; Inducer of CYP3A4 (in words) (CYP3A4; hepatocytes): weak inducer; EC50 at 2 days (CYP3A4; plated human hepatocytes): > 100 µM; EC50 (CYP3A4; read-out: Apparent EC50, CYP3A4 mRNA, donor one): > 100 µM; Influx ratio (OCT2; 5 µM): 3.44; Cmax ([2]; 500 mg/day PO human clinical dose): 2850 ng/mL
